Where two headings read alike, the source gives them in different places.
What was measured:
BPTF-BRD-Nluc [1] = target: T1, BPTF-BRD-Nluc (Homo sapiens, UniProt Q12830); test: Competition NanoBRET target engagement, inhibitors vs MS-1 tracer on BPTF-BRD-Nluc in HEK293T cells; settings: for inhibition of the BPTF-BRD in NanoBRET titration: BPTF-BRD-Nluc, 0.5 μM MS-1
Description: One assay which can be used to determine bromodomain inhibitor engagement in live cells is known as NanoBRET based on bioluminescent resonance energy transfer. NanoBRET requires a nanoluciferase (Nluc) enzyme to be fused to a protein of interest at either the N- or C-terminus of the protein and expressed in cells. Secondly, a small molecule tracer must be developed which contains the protein ligand, linker, and fluorophore. […] The ligand binds to the protein, and the BODIPY fluorophore has a structural requirement to be in proximity of less than 10 nm to the Nluc enzyme. Finally, when the Nluc substrate furimazine is added, Nluc oxidatively converts the substrate into furimamide, CO2, and light.[7],[8] The energy from the bioluminescence can be transferred to the BODIPY fluorophore leading to the BRET signal. When unlabeled bromodomain inhibitors are added, the tracer is displaced resulting in a dose-dependent reduction in BRET (Figure 1A).
MS-1 was next assessed for its utility in a competition-based NanoBRET experiment for the determination of live cell bromodomain engagement.
HEK293T Cell Culture and Transfection
(§1) HEK293T cells were cultured in DMEM, 10% FBS, 5% penicillin-streptomycin and incubated at 37 °C with 5% CO 2. The NanoBRET assay was executed based on the Promega NanoBRET TE 590 Dyes technical protocol. HEK293T cells (200,000 cells/mL) were transiently transfected with each target-NanoLuc fusion vector. A 10 μg/mL solution of lipid:DNA complexes containing each fusion vector were prepared with 9.0 μg/mL of transfection carrier DNA (Promega), 1.0 μg/mL of target-NanoLuc fusion vector DNA
(§2) (Promega), and 1 mL of Opti-MEM I. FuGENE HD Transfection Reagent (Promega) was added at a concentration of 30 μL per mL of DNA mixture. The lipid:DNA complex mixture was inverted five times and allowed to incubate for 20 minutes at room temperature.
(§3) Lipid:DNA complex was then added to HEK293T cells in a 1:20 lipid:DNA complex to cells ratio. The subsequent mixture was inverted and dispensed into sterile tissue culture flasks at a density between 55,000 and 80,000 cells/cm 2. The cells were incubated for 20 – 30 hours at 37 °C, 5% CO 2. Following incubation, the transfected cells were then adjusted to a density of 200,000 cells/mL in Opti-MEM I.
General NanoBRET Assay Protocol
BRET assays were performed using white, 384-well tissue-culture-treated plates (Corning HEK293T cells were plated at 7 x 10^3 cells per well. Stock DMSO solutions of each novel BRET tracer to be tested were diluted in Tracer Dilution Buffer (Promega) to achieve a 20X concentration by adding 4:1 Tracer Dilution Buffer to 1 part 100X tracer.
BPTF-BRD BRET assays were conducted using a final MS-1 concentration of 0.5 μM, and PCAF, GCN5, and CECR2 used a final MS-1 concentration of 1 μM. Stock DMSO solutions of inhibitors were diluted to a 1,000X concentration in 100% DMSO and subsequently dissolved to a final 10X concentration in Opti-MEM. Upon addition of the tracer and inhibitor, the cells were incubated for 2 hours at 37 °C, 5% CO 2.

[2] = legend calls it literature permeability data; cited from earlier work
BPTF-BRD [3] = target: T2, BPTF-BRD (Homo sapiens, UniProt Q12830); settings: ITC; cited from earlier work
BPTF-BRD [4] = target: T2, BPTF-BRD; set-up: method as in PMID 34375106; settings: read-out: Lit. Values: BRET EC50; cited from earlier work
[5] = target: class I bromodomains PCAF, GCN5, and CECR2; set-up: method as in PMID 34515477; settings: off-target activity; read-out: affinities for the other class I bromodomains; cited from earlier work
PCAF-Nluc = target: T3, PCAF-Nluc (Homo sapiens, UniProt Q92831); test: Competition NanoBRET on full-length PCAF-Nluc with MS-1 in HEK293T cells; format: cell-based
T3 construct: two constructs of full-length PCAF containing either N- or C-terminal Nluc; host or cells: HEK293T
T3 sequence (Q92831 whole entry): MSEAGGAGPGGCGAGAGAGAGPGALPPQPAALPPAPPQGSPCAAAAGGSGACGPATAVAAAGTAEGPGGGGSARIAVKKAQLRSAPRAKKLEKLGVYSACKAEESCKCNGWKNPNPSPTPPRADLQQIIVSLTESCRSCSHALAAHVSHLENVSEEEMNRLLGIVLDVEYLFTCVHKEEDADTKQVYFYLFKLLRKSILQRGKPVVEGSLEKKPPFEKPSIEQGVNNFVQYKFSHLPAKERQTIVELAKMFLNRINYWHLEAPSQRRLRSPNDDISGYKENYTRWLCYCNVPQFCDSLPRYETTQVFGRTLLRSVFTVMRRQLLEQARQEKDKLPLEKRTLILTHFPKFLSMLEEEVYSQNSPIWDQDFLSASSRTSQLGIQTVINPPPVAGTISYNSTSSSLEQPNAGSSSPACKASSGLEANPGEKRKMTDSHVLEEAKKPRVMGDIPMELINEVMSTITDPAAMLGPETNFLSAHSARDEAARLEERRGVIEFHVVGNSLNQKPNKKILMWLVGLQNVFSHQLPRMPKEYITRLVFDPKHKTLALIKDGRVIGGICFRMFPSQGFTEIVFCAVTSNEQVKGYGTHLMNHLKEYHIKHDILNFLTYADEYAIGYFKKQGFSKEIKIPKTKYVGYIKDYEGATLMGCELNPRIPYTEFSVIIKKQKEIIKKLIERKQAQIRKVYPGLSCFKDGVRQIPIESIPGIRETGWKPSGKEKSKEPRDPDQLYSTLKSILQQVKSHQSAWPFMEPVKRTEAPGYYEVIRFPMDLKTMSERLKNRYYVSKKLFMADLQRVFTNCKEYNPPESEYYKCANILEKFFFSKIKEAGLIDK
Protocol: First, engagement of MS-1 with full-length PCAF was investigated. MS-1 was titrated against two constructs of full-length PCAF containing either N- or C-terminal Nluc to determine the optimal position of the Nluc enzyme.
HEK293T Cell Culture and Transfection
as §1, §2, §3
General NanoBRET Assay Protocol […]
(§4) BPTF-BRD BRET assays were conducted using a final MS-1 concentration of 0.5 μM, and PCAF, GCN5, and CECR2 used a final MS-1 concentration of 1 μM. […] BRET was then measured in a Tecan Spark plate reader following a 30 second orbital shake with an amplitude of 1 mm and frequency of 510 rpm. Luminescence was measured using the luminescence […]
(§5) DMSO control wells with no tracer and no inhibitor for background correction as well as control wells with tracer and no inhibitor to determine the maximal assay window. For both tracer and inhibitor titration plots, a BRET ratio for each concentration was calculated as acceptor response divided by donor response. […]

GCN5-Nluc = target: T4, GCN5-Nluc (Homo sapiens, UniProt Q92830); test: Competition NanoBRET on full-length GCN5-Nluc with MS-1 in HEK293T cells; format: cell-based
T4 construct: The C-terminal full-length GCN5-Nluc construct was titrated against MS-1; host or cells: HEK293T
T4 sequence (Q92830 whole entry): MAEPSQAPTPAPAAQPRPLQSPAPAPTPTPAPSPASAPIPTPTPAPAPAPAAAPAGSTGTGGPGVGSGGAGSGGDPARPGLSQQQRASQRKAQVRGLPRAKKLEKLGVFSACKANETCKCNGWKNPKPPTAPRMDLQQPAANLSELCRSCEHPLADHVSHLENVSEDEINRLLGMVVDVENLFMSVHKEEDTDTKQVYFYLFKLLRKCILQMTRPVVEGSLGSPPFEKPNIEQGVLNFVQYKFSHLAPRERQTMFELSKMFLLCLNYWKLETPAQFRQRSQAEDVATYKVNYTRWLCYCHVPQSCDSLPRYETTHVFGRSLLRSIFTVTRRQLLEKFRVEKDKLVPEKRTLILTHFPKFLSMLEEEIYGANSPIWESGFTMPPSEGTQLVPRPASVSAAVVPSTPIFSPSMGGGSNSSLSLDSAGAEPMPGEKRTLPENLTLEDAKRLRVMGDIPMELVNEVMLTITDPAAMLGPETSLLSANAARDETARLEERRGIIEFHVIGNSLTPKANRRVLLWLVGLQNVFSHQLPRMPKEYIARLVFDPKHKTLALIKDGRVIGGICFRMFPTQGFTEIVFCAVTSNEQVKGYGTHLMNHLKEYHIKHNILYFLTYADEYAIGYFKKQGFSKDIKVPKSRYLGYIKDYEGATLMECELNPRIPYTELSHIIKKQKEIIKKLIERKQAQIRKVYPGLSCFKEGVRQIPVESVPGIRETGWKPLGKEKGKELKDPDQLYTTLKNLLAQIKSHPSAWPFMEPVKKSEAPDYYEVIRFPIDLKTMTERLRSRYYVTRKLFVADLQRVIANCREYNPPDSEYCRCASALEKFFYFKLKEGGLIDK
Protocol: HEK293T Cell Culture and Transfection
as §1, §2, §3
General NanoBRET Assay Protocol […]
BPTF-BRD BRET assays were conducted using a final MS-1 concentration of 0.5 μM, and PCAF, GCN5, and CECR2 used a final MS-1 concentration of 1 μM. […] BRET was then measured in a Tecan Spark plate reader following a 30 second orbital shake with an amplitude of 1 mm and frequency of 510 rpm.
as §5

PCAF = target: PCAF; set-up: method as in PMID 27966810; settings: read-out: literature Kd; cited from earlier work
BPTF-BRD-Nluc [6] = target: T1, BPTF-BRD-Nluc; test: NanoBRET tracer titration against BPTF-BRD-Nluc in HEK293T cells; format: cell-based; settings: for EC50: tracer titrated against BPTF-BRD-Nluc, HEK293T cells, n=2
BPTF-BRD [7] = target: T2, BPTF-BRD; test: Kinetic NanoBRET measurement of tracer kon, koff and Kd with the BPTF-BRD; format: cell-based
Protocol: Figure 3. A) Tracer titration plots against BPTF-BRD-Nluc in HEK293T cells and their EC50 values. *second replicate EC50 could not be determined due to an incomplete curve. B) Kinetics data with MS-1 at varying concentrations over 25 minutes (truncated from 1 hour). C) Linear plot of kobs values at each concentration of MS-1. The kon and koff values were determined from the linear fit equation and were used to calculate the Kd. D) BI-7190 titration plots at various MS-1 concentrations to determine ideal assay window. EC50 values of BI-7190 are reported at various MS-1 concentrations. All graphical data represents mean ± standard deviation where A, B, and C are technical duplicates with n=2, and D is reported as a technical duplicate with n=3. […] (μM) of the same panel. / Panel D: the concentration row of the table is headed [BI-7190] as printed; it is unclear whether 2, 1, 0.5 and 0.25 μM are concentrations of BI-7190 or of another substance.
Before testing inhibitors, the Kd value of the tracer with the BPTF-BRD was measured kinetically by determining the kon and koff rates of the NanoBRET tracer. The Kd of the tracer enables the conversion of EC50 values to apparent Ki values. Varying concentrations of MS-1 were dosed, and measurements were taken every 35 seconds over the course of one hour (Figure 3B). The association of MS-1 with the BPTF-BRD was fast (~ 15 minutes). Data was fit using one-phase association and kobs values were determined for each concentration. […] This affinity is within two-fold of the EC50 derived for MS-1, indicating good cell permeability of the tracer. Additionally, this moderate affinity is an ideal range for future competition experiments.

Nluc-CECR2 = target: T5, Nluc-CECR2 (Homo sapiens, UniProt Q9BXF3); test: Competition NanoBRET on full-length Nluc-CECR2 with MS-1 in HEK293T cells; format: cell-based
T5 construct: MS-1 was titrated against the N-terminal full length Nluc-CECR2; host or cells: HEK293T
T5 sequence (Q9BXF3 whole entry): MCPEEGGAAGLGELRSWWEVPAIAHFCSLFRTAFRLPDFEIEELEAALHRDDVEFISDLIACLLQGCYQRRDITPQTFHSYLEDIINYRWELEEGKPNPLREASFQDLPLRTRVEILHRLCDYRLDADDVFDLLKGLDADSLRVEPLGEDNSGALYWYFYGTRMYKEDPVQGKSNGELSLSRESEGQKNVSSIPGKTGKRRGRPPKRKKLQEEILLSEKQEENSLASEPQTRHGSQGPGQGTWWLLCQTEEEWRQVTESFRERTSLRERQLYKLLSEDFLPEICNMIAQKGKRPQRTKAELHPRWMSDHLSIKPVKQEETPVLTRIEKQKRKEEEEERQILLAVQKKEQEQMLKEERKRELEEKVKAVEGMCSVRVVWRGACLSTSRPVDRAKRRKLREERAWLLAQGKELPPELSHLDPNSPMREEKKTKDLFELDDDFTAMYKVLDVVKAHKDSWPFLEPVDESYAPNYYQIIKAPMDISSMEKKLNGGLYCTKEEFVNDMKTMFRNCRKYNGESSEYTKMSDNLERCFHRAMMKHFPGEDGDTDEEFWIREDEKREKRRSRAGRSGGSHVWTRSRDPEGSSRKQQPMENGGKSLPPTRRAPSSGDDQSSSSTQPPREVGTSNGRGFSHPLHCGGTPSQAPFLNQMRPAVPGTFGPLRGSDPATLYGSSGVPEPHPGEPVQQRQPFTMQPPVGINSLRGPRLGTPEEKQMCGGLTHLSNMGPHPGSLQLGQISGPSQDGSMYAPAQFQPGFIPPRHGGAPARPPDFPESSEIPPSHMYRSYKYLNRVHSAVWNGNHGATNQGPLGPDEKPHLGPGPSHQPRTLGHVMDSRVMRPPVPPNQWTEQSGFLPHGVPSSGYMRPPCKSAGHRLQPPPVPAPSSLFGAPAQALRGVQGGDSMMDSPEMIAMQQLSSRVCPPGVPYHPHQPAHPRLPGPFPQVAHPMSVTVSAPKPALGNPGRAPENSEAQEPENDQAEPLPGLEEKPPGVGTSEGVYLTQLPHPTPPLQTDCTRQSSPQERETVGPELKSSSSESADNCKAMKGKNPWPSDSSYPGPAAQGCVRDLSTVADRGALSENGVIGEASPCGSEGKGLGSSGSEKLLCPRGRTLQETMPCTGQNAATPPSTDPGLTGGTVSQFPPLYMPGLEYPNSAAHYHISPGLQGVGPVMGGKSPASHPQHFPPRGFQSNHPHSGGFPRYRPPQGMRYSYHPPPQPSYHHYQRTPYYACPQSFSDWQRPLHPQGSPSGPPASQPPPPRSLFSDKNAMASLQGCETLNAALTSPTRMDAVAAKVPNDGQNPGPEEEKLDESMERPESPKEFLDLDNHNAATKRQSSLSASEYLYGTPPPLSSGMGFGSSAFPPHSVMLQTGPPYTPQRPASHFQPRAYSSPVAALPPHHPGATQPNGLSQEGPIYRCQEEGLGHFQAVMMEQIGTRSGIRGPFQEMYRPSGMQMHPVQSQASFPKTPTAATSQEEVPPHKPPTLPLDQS
Protocol: MS-1 was titrated against the N-terminal full length Nluc-CECR2.
HEK293T Cell Culture and Transfection
as §1, §2, §3
General NanoBRET Assay Protocol […]
as §4, §5

[8] = set-up: method as in PMID 34146702; settings: reported PAMPA data; cited from earlier work
[9] = known from the literature; cited from earlier work
BPTF-BRD [10] = target: T2, BPTF-BRD; test: In vitro AlphaScreen competitive inhibition; format: biochemical; settings: for IC50: in vitro, BPTF-BRD
[11] = Caco-2 cell-based permeability assay; format: in vitro ADME; settings: human, Caco-2, pH 7.4, 2 h at 37 °C
Protocol: Figure S6. MS-1 titration against Nluc-CECR2 in the presence of either DMSO (purple) or
compound 4 (black) at 100 μM.
Caco-2 Cell-Based Permeability Assay
The Caco-2 permeability assay was conducted as previously described
(PMID: 36793425). Briefly, Caco-2 cells were maintained at 37 °C in a humidified
incubator with 5% CO2, cultured in MEM supplemented with 10% FBS, 100 units/ml of
penicillin, and 100 μg/ml of streptomycin in 75 cm 2 flasks. Cells were seeded onto 96-well
Transwell inserts at a density of 0.165×10^5 cells/insert and cultured for an additional 7
days. Monolayers were washed twice with HBSS/HEPES (10 mM, pH 7.4) before starting
the permeability assay. To initiate the assay, a 10 μmol/L solution of each test compound
was added to either the apical (A) or basolateral (B) side of the inserts. The monolayers
were incubated for 2 h at 37 °C. Samples were collected from both compartments and
compound concentrations were measured by UPLC/MS (Waters; Milford, MA). All
compounds were tested in triplicates.
The apparent permeability coefficient (Papp, cm/s) of each compound in the A→B (or
B→A) direction was calculated using the equation: […]
where dQ/dt is the flux (μmol/s), A is the surface area (cm 2), and C0 is the initial
Chromatographic separation was performed on a Waters Acquity UPLC system coupled
to an SQ mass spectrometer. […]
recording was used for quantification of each compound.

[12] = BRET EC50, BPTF-BRD-Nluc, 0.5 μM MS-1, HEK293T cells, n=2

SMILES: COC(=O)c1cccc(NC(=O)NC2CCN(c3ccnc(Nc4ccc(F)cc4)n3)C2)c1 (racemic) [AU1 (Rac)]
- inhibition of the BPTF-BRD in NanoBRET titration (BPTF-BRD-Nluc [1]): neither showed full inhibition

SMILES: COc1cc(-c2cn(C)c(=O)c(C)c2C)ccc1C1(N2CCN(C)CC2)CC1 [BI-7190]
- Caco-2 or PAMPA: Caco-2 [2]: 21 10^-6 cm/s
- Kd (BPTF-BRD [3]): 85 nM
- EC50 (BPTF-BRD [4]): 58 nM
- EC50 (BPTF-BRD-Nluc [1]; [12]): 66 ± 3 nM
- EC50 (BPTF-BRD-Nluc [1]; EC50, printed [BI-7190]: 0.25 μM (MS-1 concentration per legend), n=3): 70 ± 10 nM
- EC50 (BPTF-BRD-Nluc [1]; EC50, printed [BI-7190]: 0.5 μM (MS-1 concentration per legend), n=3): 100 ± 10 nM
- EC50 (BPTF-BRD-Nluc [1]; EC50, printed [BI-7190]: 1 μM (MS-1 concentration per legend), n=3): 160 ± 20 nM
- EC50 (BPTF-BRD-Nluc [1]; EC50, printed [BI-7190]: 2 μM (MS-1 concentration per legend), n=3): 200 ± 10 nM

SMILES: Cn1ncc(Nc2ccc(CCN)cc2)c(Cl)c1=O [BZ1]
- Caco-2 or PAMPA: Caco-2 [2]: 0.9 ± 5 10^-6 cm/s
- Kd [5]: 11 to 44 nM

SMILES: CN(C)CCCn1ccc2cc(-c3nc(S(C)(=O)=O)nc4[nH]ccc34)ccc21 [DC-BPi-11]
- EC50 (BPTF-BRD-Nluc [1]; [12]): 450 ± 20 nM

SMILES: Cc1nnc2c3ccccc3c(N[C@@H](C)[C@H](c3ccccc3)N(C)C)nn12 [L-Moses, reference compound]
- EC50 (PCAF-Nluc; PCAF-Nluc, 1 μM MS-1, n=2, read-out: BRET EC50): 280 ± 50 nM
- EC50 (GCN5-Nluc; GCN5-Nluc, 1 μM MS-1, n=2, read-out: BRET EC50): 500 ± 60 nM
- Kd (PCAF): 126 nM

SMILES: Cn1ncc(Nc2ccc3c(c2)CCN(CCCCNC(=O)CCc2ccc4n2[B-](F)(F)[N+]2=C(c5ccc[nH]5)C=CC2=C4)C3)c(Cl)c1=O [MS-1]
- competition of tracer by compound 4 (non-specific interactions) (BPTF-BRD-Nluc [6]; BPTF-BRD-Nluc, 25X molar excess of 4 (100 μM)): largely competed away
- EC50 (BPTF-BRD-Nluc [6]): 0.6 ± 0.1 µM
- assay window (BPTF-BRD-Nluc [6]; tracer titration, BPTF-BRD-Nluc construct): 60 mBu
- koff (BPTF-BRD [7]; linear fit of kobs vs [MS-1]): 0.00181 ± 3e-05 s⁻¹
- kon (BPTF-BRD [7]; linear fit of kobs vs [MS-1]): 1800 ± 400 M⁻¹ s⁻¹
- Kd (BPTF-BRD [7]; measured kinetically, calculated from kon and koff): 1100 ± 300 nM
- association with the BPTF-BRD (time) (BPTF-BRD [7]; measurements every 35 seconds over one hour): ~ 15 minutes
- assay window (PCAF-Nluc; 1 μM MS-1, PCAF-Nluc): ~20 mBu
- competition of tracer by compound 4 (non-specific interactions) (PCAF-Nluc; PCAF-Nluc, 4 at 100 μM): competed away
- assay window (GCN5-Nluc; 1 μM MS-1, GCN5-Nluc): ~20 mBu
- competition of tracer by compound 4 (non-specific interactions) (GCN5-Nluc; GCN5-Nluc, 4 at 100 μM): competed away
- assay window (Nluc-CECR2; 1 μM MS-1, Nluc-CECR2): around 20 mBu
- competition of tracer by compound 4 (non-specific interactions) (Nluc-CECR2; Nluc-CECR2, 4 at 100 μM): less-efficient competition
- assay window (BPTF-BRD-Nluc [1]; 0.5 μM MS-1, BPTF-BRD-Nluc): ~30 mBu

SMILES: Cn1ncc(Nc2ccc3c(c2)CCN(CCCCNC(=O)CCCNC(=O)CCc2ccc4n2[B-](F)(F)[N+]2=C(c5ccc[nH]5)C=CC2=C4)C3)c(Cl)c1=O [MS-2]
- EC50 (BPTF-BRD-Nluc [6]): 3.3 ± 0.1 µM

SMILES: Cn1ncc(Nc2ccc3c(c2)CCN(CCCCNC(=O)CCOCCOCCOCCOCCNC(=O)CCc2ccc4n2[B-](F)(F)[N+]2=C(c5ccc[nH]5)C=CC2=C4)C3)c(Cl)c1=O [MS-3]
- EC50 (BPTF-BRD-Nluc [6]): 3.7 µM

SMILES: Cc1c(Nc2ccc(S(=O)(=O)N3CCN(C)CC3)cc2F)nc2ccc(-c3cnn(C4CC4)c3)cn2c1=O [NVS-BPTF-1]
- Caco-2 or PAMPA: PAMPA [8]: 16 10^-6 cm/s
- solubility [9]: poor solubility
- EC50 (BPTF-BRD-Nluc [1]; [12]): 400 ± 50 nM

SMILES: COC(=O)c1cccc(NC(=O)N[C@H]2CCN(c3ccnc(Nc4ccc(F)cc4)n3)C2)c1 [S-AU1]
- inhibition of the BPTF-BRD in NanoBRET titration (BPTF-BRD-Nluc [1]): neither showed full inhibition

SMILES: CN(C)CCCOc1ccc(-c2cc(NCCCn3cccn3)nc(S(C)(=O)=O)n2)cc1 [TP-238]
- EC50 (Nluc-CECR2; Nluc-CECR2, n=2, MS-1 1 μM in text and SI, 0.5 μM in Figure 6 legend, read-out: BRET EC50): 620 ± 60 nM
- Caco-2 or PAMPA: PAMPA [8]: 28 10^-6 cm/s
- EC50 (BPTF-BRD-Nluc [1]; [12]): 1200 ± 100 nM

SMILES: CN1CCc2cc(Nc3cnn(C)c(=O)c3Cl)ccc2C1 [compound 4]
- IC50 (BPTF-BRD [10]): 260 nM
- Papp at 2 h, 10 μmol/L [11]: 47 ± 20 ×10⁻⁶ cm/s
- EC50 (BPTF-BRD-Nluc [1]; [12]): 900 ± 200 nM

SMILES: CN1CCc2cc(Nc3ncn(C)c(=O)c3Cl)ccc2C1 [compound 5]
- fold lower affinity in vitro (BPTF-BRD [10]; compound 5 compared with compound 4, AlphaScreen IC50): 2.5 fold
- IC50 (BPTF-BRD [10]): 660 ± 40 nM
- Papp at 2 h, 10 μmol/L [11]: 70 ± 80 ×10⁻⁶ cm/s
- EC50 (BPTF-BRD-Nluc [1]; [12]): 1400 ± 200 nM
- fold lower affinity in cells (BPTF-BRD-Nluc [1]; compound 5 compared with compound 4, NanoBRET EC50): 1.5 fold

SMILES: CN1CCc2ccc(Nc3cnn(C)c(=O)c3Cl)cc2C1 [compound 6]
- IC50 (BPTF-BRD [10]): 2100 nM
- EC50 (BPTF-BRD-Nluc [1]; [12]): 4000 ± 300 nM
